In US12643912B2, “Macrocyclic compounds, a process for their preparation and pharmaceutical compositions containing them” (LES LABORATOIRES SERVIER, priority 2020, dated 2026):
Like-named read-outs stand apart in the source and are kept apart here.

Tests used:
Keap1 (A321-C624) (h) = target: T1, Keap1 (A321-C624) (h) (Homo sapiens, UniProt Q14145); assay: Surface Plasmon Resonance binding assay to Kelch domain of KEAP1; conditions: Biacore T200, 25° C., immobilized His-Thromb-KEAP1(A321-C624), single cycle kinetics, KD=kd/ka from 1:1 fit; read-out: Keap1 (A321-C624) (h) direct/SPR (KD)
T1 construct: His-Thromb-KEAP1(A321-C624) acquired from Novalix (batch PU-P01) was immobilized covalently by amine coupling; His tag (N); thrombin cleavage site (Thromb) (N); purchased Novalix batch PU-P01
Experimental: EXAMPLE 85: SURFACE PLASMON RESONANCE
Binding assay to Kelch domain of KEAP1 was performed by Surface Plasmon Resonance (SPR) on a Biacore T200 (GE Healthcare) at 25° C. using CM5 chip. His-Thromb-KEAP1(A321-C624) acquired from Novalix (batch PU-P01) was immobilized covalently by amine coupling using standard wizard protocol, at a concentration of 20 μg/mL in sodium acetate pH 5.5. The ligand was captured until 1250 RU was reached. Amine blank is used as the reference flow cell. Binding of analyte to the ligand was monitored in real time with associations of 180 seconds and a dissociation of 720 seconds. Association (ka) and dissociation (kd) rates were fitted with a simple 1:1 kinetic interaction model using Biacore T200 Evaluation Software (GE Healthcare). The equilibrium constant (KD=kd/ka) was calculated from these fitted parameters. […] The Biacore binding assay was performed with a flowrate of 50 μL/min using a running buffer of 10 mM HEPES (pH 7.4), 150 mM NaCl, 3 mM EDTA, 1 mM TCEP, 0.05% P20,5% DMSO. Double subtraction was used by subtracting both reference flow cell and previous blank cycle (with running buffer). Solvent correction was applied to correct DMSO bulk effect.

[1] = system: Nrf2 (Keap1-NRF2 nuclear translocation); assay: U2OS translocation assay (PathHunter U2OS Keap1-NRF2 Nuclear Translocation Cell Line); assay type: cell-based
In short: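 PathHunter U2OS line expressing Nrf2-enzyme-donor fusion and nuclear acceptor enzyme, 7 500 cells/well in Opti-MEM, 1% FBS. Compounds incubated 3 h at 37° C. Luminescence after 60 min with detection reagent, normalized between 1% DMSO and 10 μM andrographolide.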

[2] = read-out: CELLULAR U2OS EC50, U2OS Keap1-NRF2 nuclear translocation cells, 3 h incubation, luminescence, normalized between 1% DMSO and 10 μM andrographolide
[3] = Homo sapiens, U2OS, 3 h, read-out: CELLULAR U2OS EC50 (nM), U2OS Keap1-NRF2 nuclear translocation cells, 3 h incubation, luminescence, normalized between 1% DMSO and 10 μM andrographolide

T1 sequence (Q14145 321-624): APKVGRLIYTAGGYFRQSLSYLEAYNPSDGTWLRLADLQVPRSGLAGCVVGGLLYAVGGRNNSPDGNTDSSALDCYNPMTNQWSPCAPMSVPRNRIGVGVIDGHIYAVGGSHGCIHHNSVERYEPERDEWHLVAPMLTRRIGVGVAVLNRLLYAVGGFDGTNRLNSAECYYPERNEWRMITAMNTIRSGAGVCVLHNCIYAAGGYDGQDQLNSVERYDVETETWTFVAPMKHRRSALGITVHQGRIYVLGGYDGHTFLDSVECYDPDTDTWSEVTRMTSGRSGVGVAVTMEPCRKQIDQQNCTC

| SMILES | Kd (Keap1 (A321-C624) (h)) [nM] | EC50 [1, 2] [nM] | EC50 [1, 3] [nM] |
| --- | --- | --- | --- |
| Cc1ccc2cc1CN1Cc3cc(ccc3OS1(=O)=O)OCCN(c1ccccc1)CCn1nnc3c(C)c(ccc31)C2CC(=O)O (single isomer, unassigned) [Example 58b, [4,32-Dimethyl-28,28-dioxo-19-phenyl-22,27-dioxa-28λ^6-thia-1,14,15,16,19-pentaazahexacyclo[21.5.3.1^3,70.1^9,130.0^12,160.0^26,30]tritriaconta-3(33),4,6,9(32),10,12,14,23,25,30-decaen-8-yl]acetic acid] | 12.5 | 427 | – |
| Cc1ccc2cc1[C@@H](C)N1Cc3cc(ccc3OS1(=O)=O)OCCCOCCn1nnc3c(C)c(ccc31)[C@@H]2CC(=O)O [Example 27a, [(2R,8R)-2,4,33-Trimethyl-29,29-dioxo-19,23,28-trioxa-29λ^6-thia-1,14,15,16-tetraazahexacyclo[22.5.3.1^3,70.1^9,130.1^12,160.0^27,31]tetratriaconta-3(34),4,6,9(33),10,12,14,24,26,31-decaen-8-yl]acetic acid] | 14.2 | – | 93.1 |
| Cc1ccc2cc1CN1Cc3cc(ccc3OS1(=O)=O)OCc1ccccc1OCCCn1nnc3c(C)c(ccc31)C2CC(=O)O (single isomer, unassigned) [Example 57b, [4,38-Dimethyl-34,34-dioxo-20,28,33-trioxa-34λ^6-thia-1,14,15,16-tetraazaheptacyclo[27.5.3.1^3,70.1^9,130.0^12,160.0^21,260.0^32,36]nonatriaconta-3(39),4,6,9(38),10,12,14,21,23,25,29,31,36-tridecaen-8-yl]acetic acid] | 498 | 2820 | – |
| Cc1ccc2cc1[C@@H](C)N1Cc3cc(ccc3OS1(=O)=O)OCCN(C)CCCn1nnc3c(C)c(ccc31)[C@H]2CC(=O)O [Example 34a, [(2R,8S)-2,4,20,33-tetramethyl-29,29-dioxo-23,28-dioxa-29λ^6-thia-1,14,15,16,20-pentaazahexacyclo[22.5.3.1^3,70.1^9,130.0^12,160.0^27,31]tetratriaconta-3(34),4,6,9(33),10,12,14,24,26,31-decaen-8-yl]acetic acid] | 0.49 | – | 2.66 |
| Cc1ccc2cc1[C@@H](C)N1Cc3cc(ccc3OS1(=O)=O)OCCCN(C)CCn1nnc3c(C)c(ccc31)[C@H]2CC(=O)O [Example 21a, [(2R,8S)-2,4,19,33-Tetramethyl-29,29-dioxo-23,28-dioxa-29λ^6-thia-1,14,15,16,19-pentaazahexacyclo[22.5.3.1^3,70.1^9,130.0^12,160.0^27,31]tetratriaconta-3(34),4,6,9(33),10,12,14,24,26,31-decaen-8-yl]acetic acid] | 2.55 | – | 10.9 |
| Cc1ccc2cc1CN1Cc3cc(ccc3OS1(=O)=O)N(C)C(=O)CCCn1nnc3c(C)c(ccc31)C2CC(=O)O (stereo not shown) [Example 43, [4,21,31-Trimethyl-20,27,27-trioxo-26-oxa-27λ^6-thia-1,14,15,16,21-pentaazahexacyclo[20.5.3.1^3,70.1^9,130.0^12,160.0^25,29]dotriaconta-3(32),4,6,9(31),10,12,14,22,24,29-decaen-8-yl]acetic acid] | 2.92 | – | 570 |
| Cc1ccc2cc1[C@@H](C)N1Cc3cc(ccc3OS1(=O)=O)OCCOCCCn1nnc3c(C)c(ccc31)[C@H]2CC(=O)O [Example 26a, [(2R,8S)-2,4,33-Trimethyl-29,29-dioxo-20,23,28-trioxa-29λ^6-thia-1,14,15,16-tetraazahexacyclo[22.5.3.1^3,70.1^9,130.0^12,160.0^27,31]tetratriaconta-3(34),4,6,9(33),10,12,14,24,26,31-decaen-8-yl]acetic acid] | 3.4 | – | 11.3 |
| Cc1ccc2cc1[C@@H](C)N1Cc3cc(ccc3OS1(=O)=O)OCCCCCn1nnc3c(C)c(ccc31)[C@@H]2CC(=O)O [Example 20b, [(2R,8R)-2,4,32-trimethyl-28,28-dioxo-22,27-dioxa-28λ^6-thia-1,14,15,16-tetraazahexacyclo[21.5.3.1^3,70.1^9,130.0^12,160.0^26,30]tritriaconta-3(33),4,6,9(32),10,12,14,23,25,30-decaen-8-yl]acetic acid] | 2.3 | – | 131 |

Further lines, with some results ahead:

| Kd (Keap1 (A321-C624) (h)) [nM] | SMILES | EC50 [1, 2] [nM] | EC50 [1, 3] [nM] |
| --- | --- | --- | --- |
| 15.1 | COc1ccc2cc1CN1Cc3cc(ccc3OS1(=O)=O)OCCCCn1nnc3c(C)c(ccc31)C2CC(=O)O (single isomer, unassigned) [Example 10b, [4-Methoxy-31-methyl-27,27-dioxo-21,26-dioxa-27λ^6-thia-1,14,15,16-tetraazahexacyclo[20.5.3.1^3,70.1^9,130.0^12,160.0^25,29]dotriaconta-3(32),4,6,9(31),10,12,14,22,24,29-decaen-8-yl]acetic acid] | 369 | – |
| 1.16 | COc1cc2c3cc1OCCCCn1nnc4c(C)c(ccc41)C(CC(=O)O)c1ccc(C)c(c1)CN(C3)S(=O)(=O)O2 (single isomer, unassigned) [Example 25b, [23-Methoxy-4,31-dimethyl-27,27-dioxo-21,26-dioxa-27λ^6-thia-1,14,15,16-tetraazahexacyclo[20.5.3.1^3,70.1^9,130.0^12,160.0^25,29]dotriaconta-3(32),4,6,9(31),10,12,14,22,24,29-decaen-8-yl]acetic acid] | 56.8 | – |
| 47.7 | COc1ccc2cc1CN1Cc3cc(ccc3OS1(=O)=O)OCc1ccccc1OCCCCn1nnc3c(C)c(ccc31)C2CC(=O)O (single isomer, unassigned) [Example 53a, [4-Methoxy-39-methyl-35,35-dioxo-21,29,34-trioxa-35λ^6-thia-1,14,15,16-tetraazaheptacyclo[28.5.3.1^3,70.1^9,130.0^12,160.0^22,270.0^33,37]tetraconta-3(40),4,6,9(39),10,12,14,22,24,26,30,32,37-tridecaen-8-yl]acetic acid] | 369 | – |
| 529 | COc1c(Cl)cc2cc1CN1Cc3cc(ccc3OS1(=O)=O)OCCCCn1nnc3c(C)c(ccc31)C2CC(=O)O (single isomer, unassigned) [Example 37b, [5-Chloro-4-methoxy-31-methyl-27,27-dioxo-21,26-dioxa-27λ^6-thia-1,14,15,16-tetraazahexacyclo[20.5.3.1^3,70.1^9,130.0^12,160.0^25,29]dotriaconta-3(32),4,6,9(31),10,12,14,22,24,29-decaen-8-yl]acetic acid] | > 3160 | – |
| 75.1 | COc1c(Cl)cc2cc1CN1Cc3cc(ccc3OS1(=O)=O)OCCCCn1nnc3c(C)c(ccc31)C2CC(=O)O (single isomer, unassigned) [Example 37a, [5-Chloro-4-methoxy-31-methyl-27,27-dioxo-21,26-dioxa-27λ^6-thia-1,14,15,16-tetraazahexacyclo[20.5.3.1^3,70.1^9,130.0^12,160.0^25,29]dotriaconta-3(32),4,6,9(31),10,12,14,22,24,29-decaen-8-yl]acetic acid] | 1300 | – |
| 2.12 | Cc1c2ccc3c1nnn3CCCCOc1ccc3c(c1)CN(Cc1cc(ccc1Cl)C2CC(=O)O)S(=O)(=O)O3 (single isomer, unassigned) [Example 9a, [4-Chloro-31-methyl-27,27-dioxo-21,26-dioxa-27λ^6-thia-1,14,15,16-tetraazahexacyclo[20.5.3.1^3,70.1^9,130.0^12,160.0^25,29]dotriaconta-3(32),4,6,9(31),10,12,14,22,24,29-decaen-8-yl]acetic acid] | 48.2 | – |
| 2.35 | Cc1ccc2cc1CN1Cc3cc(ccc3OS1(=O)=O)OC[C@H](C)CCn1nnc3c(C)c(ccc31)C2CC(=O)O (single isomer, unassigned) [Example 45b] | 144 | – |
| 5.97 | Cc1ccc2cc1CN1Cc3cc(ccc3OS1(=O)=O)OCCCCn1nnc3c(C)c(cc(Cl)c31)[C@@H]2CC(=O)O [Example 50, [(8R)-11-Chloro-4,31-dimethyl-27,27-dioxo-21,26-dioxa-27λ^6-thia-1,14,15,16-tetraazahexacyclo[20.5.3.1^3,70.1^9,130.0^12,160.0^25,29]dotriaconta-3(32),4,6,9(31),10,12,14,22,24,29-decaen-8-yl]acetic acid] | – | 139 |
| 0.195 | Cc1c2ccc3c1nnn3CCCCOc1ccc3c(c1)CN([C@H](C)c1cc(ccc1Cl)[C@@H]2CC(=O)O)S(=O)(=O)O3 [Example 64a, [(2R,8S)-4-chloro-2,31-dimethyl-27,27-dioxo-21,26-dioxa-27λ^6-thia-1,14,15,16-tetraazahexacyclo[20.5.3.1^3,70.1^9,130.0^12,160.0^25,29]dotriaconta-3(32),4,6,9(31),10,12,14,22,24,29-decaen-8-yl]acetic acid] | – | 24 |
